This passage reports residual activity, IC50 and inhibition results from ChEMBL document CHEMBL3758164, “Identification of new SUMO activating enzyme 1 inhibitors using virtual screening and scaffold hopping” (Bioorg Med Chem Lett, 2016).

Assay [1] addresses T1, SUMO-activating enzyme subunit 1 (Homo sapiens) (UniProt Q9UBE0).
T1 sequence (whole entry): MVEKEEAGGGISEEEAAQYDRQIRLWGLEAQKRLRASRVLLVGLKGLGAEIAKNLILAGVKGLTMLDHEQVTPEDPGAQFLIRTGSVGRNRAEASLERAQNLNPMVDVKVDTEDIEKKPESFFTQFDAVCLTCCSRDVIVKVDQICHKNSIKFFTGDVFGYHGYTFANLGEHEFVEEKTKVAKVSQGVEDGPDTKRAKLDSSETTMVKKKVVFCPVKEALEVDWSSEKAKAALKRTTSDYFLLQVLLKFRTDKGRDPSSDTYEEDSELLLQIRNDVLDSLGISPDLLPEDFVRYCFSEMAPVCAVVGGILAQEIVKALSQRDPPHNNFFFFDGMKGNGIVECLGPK
Put plainly: Inhibition of recombinant GST-fused SUMO E1 (unknown origin) using RanGAP1 as substrate at 100 uM after 2 hrs by immunoblot analysis. Conditions: values are per cent of control.

In assay [2] the target is T1, SUMO-activating enzyme subunit 1 (Homo sapiens). The experiment in a line: Inhibition of recombinant GST-fused SUMO E1 (unknown origin) using RanGAP1 as substrate at 20 uM after 2 hrs by immunoblot analysis. Conditions: values are per cent of control.
Assay [3] addresses T2, SUMO-activating enzyme subunit 1 (Homo sapiens, UniProt Q9UBE0).
T2 sequence (Q9UBE0 whole entry): T1 sequence (whole entry)
Put plainly: (§1) Inhibition of recombinant GST-fused SUMO E1 (unknown origin) using RanGAP1 as substrate after 2 hrs by immunoblot analysis.

The target of assay [4] is T1, SUMO-activating enzyme subunit 1 (Homo sapiens). The description is as §1.

Where only a bound is given, the exact number is not on record here.

On to `COc1cc(NC(=O)Nc2nc3cc(C)c(C)cc3s2)cc(OC)c1OC`, for which the residual activity in assay [1] came to 96%; in assay [2], 94.8%.

`COc1ccccc1NC(=O)Nc1cc(C(C)(C)C)nn1-c1ccccc1`: the residual activity in assay [1] was found to be 53.2%; in assay [2], 99.6%.

Regarding `Cc1ccc(-c2nc(NC(=O)Nc3cccc(Cl)c3)sc2C)cc1`, the residual activity in assay [1] was found to be 45.6%; in assay [2], 88.5%.

With `COc1ccc(NC(=O)Nc2nc(C)c(C(C)=O)s2)cc1`, the residual activity in assay [1] was 93.3%; in assay [2], 105%.

`COc1ccc(NC(=O)Nc2nc(-c3ccc(OC)c(OC)c3)cs2)cc1`: the residual activity in assay [1] was 68.7%; in assay [2], 92%.

With `Cc1ccc(-c2nc(NC(=O)Nc3ccc(Cl)cc3)sc2C)cc1`, the residual activity in assay [1] stood at 20.6%; in assay [2], 91.8%.

Take `Cc1ccc(-c2nc(NC(=O)Nc3ccccc3)sc2C)cc1Cl`: the residual activity in assay [1] was 41.4%; in assay [2], 65.6%.

Take `CCc1cc(=O)[nH]c(-n2nc(-c3ccccc3)cc2NC(=O)Nc2ccc(C(C)(C)C)cc2)n1`: the figures for the residual activity in assay [1] and in assay [2] were 1.88% and 55.2%, respectively. Besides, the IC50 in assay [3] came to 13.8 µM.

With `Cc1cc(=O)[nH]c(-n2nc(-c3ccccc3)cc2NC(=O)Nc2ccc3c(c2)OCO3)n1`, the residual activity in assay [1] was 3.99%; in assay [2], 57.7%. The IC50 in assay [3] is 30.4 µM.

Turning to `COc1cccc(NC(=O)Nc2nc(C)c(C(C)=O)s2)c1`, the residual activity in assay [1] is 91.9%; in assay [2], 96.6%.

Take `CCc1cc(=O)[nH]c(-n2nc(-c3ccccc3)cc2NC(=O)Nc2ccc3c(c2)OCO3)n1`: the residual activity in assay [1] came out at 5.69%; in assay [2], 36.7%. In addition, the concentration for half-maximal inhibition (IC50) in assay [3] was over 100 µM.

As to `COc1ccc(NC(=O)Nc2cc(C)nn2-c2ccc(F)cc2)cc1`, the residual activity was 95.4% in assay [1] and 97.7% in assay [2].

Turning to `COc1ccc(NC(=O)Nc2nc(-c3ccccc3)c(C(C)=O)s2)cc1OC`, the figures for the residual activity in assay [1] and in assay [2] were 13.7% and 86%, respectively.

For `COc1cc(NC(=O)Nc2nc3c(OC)ccc(C)c3s2)cc(OC)c1OC`, the residual activity in assay [1] came out at 83.5%; in assay [2], 99.3%.

For `COc1cccc(NC(=O)Nc2cc(C)nn2-c2ccc(F)cc2)c1`, the figures for the residual activity in assay [1] and in assay [2] were 96.4% and 96%, respectively.

`O=C(Nc1cccc(Cl)c1)Nc1nc2c(ccc3ccccc32)s1`: the residual activity came out at 0.02% in assay [1] and 69.3% in assay [2].

Regarding `Cc1ccc(S(=O)(=O)NC(=O)Nc2nc(-c3ccc(C)c(Cl)c3)c(C)s2)cc1`, the figures for the residual activity in assay [1] and in assay [2] were 0.68% and 79.3%, respectively.

`Cn1nc(-c2ccccc2)cc1NC(=O)Nc1ccc(OCc2ccccc2)cc1`: the figures for the residual activity in assay [1] and in assay [2] were 3% and 72%, respectively.

As to `COc1ccccc1NC(=O)Nc1cc(C(C)(C)C)nn1C`, the values for the residual activity in assay [1] and in assay [2] were 95.2% and 102%, respectively.

Turning to `CCc1cc(=O)[nH]c(-n2nc(-c3ccccc3)cc2NC(=O)Nc2cc(OC)cc(OC)c2)n1`, the residual activity worked out at 26.8% in assay [1] and 82.3% in assay [2].

As for `COc1cc(C)ccc1NC(=O)Nc1cn(-c2ccccc2)nc1-c1ccc(OC)c(OC)c1`, the residual activity in assay [1] was found to be 57.5%; in assay [2], 88.9%.

On to `Cc1sc(NC(=O)Nc2ccc(Cl)cc2)nc1-c1ccccc1`, for which the residual activity in assay [1] worked out at 95.8%; in assay [2] it was 91.5%.

Consider `COc1cccc(NC(=O)Nc2cc(C)nn2C2CCCC2)c1`, for which the residual activity in assay [1] was found to be 101%; in assay [2] it was 100%.

Turning to `Cn1nc(-c2ccc(Cl)cc2)cc1NC(=O)Nc1ccc(OCc2ccccc2)cc1`, the residual activity in assay [1] turned out to be 1.99%; in assay [2], 73.4%.

`COc1ccc(NC(=O)Nc2nc3c(ccc4ccccc43)s2)cc1`: the values for the residual activity in assay [1] and in assay [2] were 10.3% and 84.7%, respectively.

As to `Cc1ccc(-c2nc(NC(=O)Nc3ccc(OCc4ccccc4)cc3)sc2C)cc1Cl`, the residual activity in assay [1] turned out to be 31.6%; in assay [2], 64.8%.

Regarding `COc1ccc(NC(=O)Nc2ccc(Oc3ncnc4cc(Cl)ccc34)nc2)cc1OC1CCCC1`, in assay [3], the IC50 amounted to 13.4 µM.

Consider `COc1cc(NC(=O)Nc2nc(-c3ccc(Cl)s3)cs2)cc(OC)c1OC`, for which the residual activity turned out to be 0.01% in assay [1] and 60.8% in assay [2].

As for `O=C(Nc1ccc(OCc2ccccc2)cc1)Nc1cc(-c2ccccc2)nn1-c1ccccc1`, the values for the residual activity in assay [1] and in assay [2] were 13.3% and 86.3%, respectively.

On to `COc1cc(NC(=O)Nc2nc(-c3cc4ccccc4o3)cs2)cc(OC)c1OC`, for which the values for the residual activity in assay [1] and in assay [2] were 45.3% and 76.8%, respectively.

For `COc1ccc(NC(=O)Nc2nc(-c3ccc(C)c(Cl)c3)c(C)s2)cc1OC1CCCC1`, the residual activity in assay [1] is 13%; in assay [2], 39.8%. Moreover, the IC50 in assay [3] is 92.6 µM. Besides, in assay [4], the inhibition result is “Dose-dependent effect”.

Regarding `COc1ccc(NC(=O)Nc2nc3cc(C)c(C)cc3s2)cc1OC`, the residual activity came out at 76.6% in assay [1] and 94.6% in assay [2].

As to `CCc1cc(=O)[nH]c(-n2nc(-c3ccccc3)cc2NC(=O)Nc2ccc(OC)cc2)n1`, the residual activity stood at 11.8% in assay [1] and 65.6% in assay [2].

With `COc1cc(NC(=O)Nc2cc(-c3ccccc3)nn2-c2nc(C)cc(=O)[nH]2)cc(OC)c1`, the residual activity in assay [1] is 16%; in assay [2], 57.5%. For the same molecule, the IC50 in assay [3] is 73 µM.

With `COc1ccccc1NC(=O)Nc1nc(-c2ccc(OC)c(OC)c2)cs1`, the residual activity in assay [1] is 80%; in assay [2], 88.1%.

In the case of `COc1cc(NC(=O)Nc2nc(-c3nc4ccccc4s3)cs2)cc(OC)c1OC`, the residual activity in assay [1] was 3.96%; in assay [2], 37.6%. For the same molecule, the IC50 in assay [3] came to 33.2 µM. For the same molecule, the inhibition entry in assay [4] is “Dose-dependent effect”.

Consider `CCOC(=O)c1sc(NC(=O)Nc2ccc(Cl)c(Cl)c2)nc1C`, for which the residual activity in assay [1] came to 0.7%; in assay [2], 53.8%.

For `Cc1ccc(-c2nc(NC(=O)Nc3ccc(F)cc3)sc2C)cc1Cl`, the residual activity amounted to 94.8% in assay [1] and 93.9% in assay [2].

As for `CCOc1ccc(NC(=O)Nc2nc(-c3ccccc3)c(C)s2)cc1`, the results for the residual activity in assay [1] and in assay [2] were 43.9% and 76.7%, respectively.

On to `COc1ccc(NC(=O)Nc2cc(C)nn2C2CCCC2)cc1`, for which the residual activity in assay [1] turned out to be 103%; in assay [2], 93.7%.

As for `Cn1nc(C(C)(C)C)cc1NC(=O)Nc1ccc(OCc2ccccc2)cc1`, the residual activity in assay [1] stood at 97.3%; in assay [2], 92.9%.

Consider `CCc1c(C)nc(-n2nc(C)cc2NC(=O)Nc2cccc(OC)c2)[nH]c1=O`, for which the residual activity came out at 103% in assay [1] and 98.1% in assay [2].
